Results taken from ChEMBL document CHEMBL1150095, “Antitumor activity and stereochemistry of acetylenic alcohols from the sponge Cribrochalina vasculum” (1995).

Assays:
Format in all cases: functional
NCI-H460 = test: Antitumor activity against human NCI-H460 cells
RXF 393 = test: Antitumor activity against human RXF393 cells
NCI-H226 = test: Antitumor activity against human NCI-H226 cells
SNB-19 = test: Antitumor activity against human SNB19 cells
K562 = test: Antitumor activity against human K562 cells
CAKI-1 = test: Antitumor activity against human Caki1 cells
OVCAR-8 = test: Antitumor activity against human OVCAR8 cells
786-0 = test: Antitumor activity against human 786-0 cells
HL-60(TB) = test: Antitumor activity against human HL-60(TB) cells
SF-268 = test: Antitumor activity against human SF268 cells
[1] = Antitumor activity against human […] cells
A498 = test: Antitumor activity against human A498 cells
OVCAR-4 = test: Antitumor activity against human OVCAR4 cells
SF-539 = test: Antitumor activity against human SF539 cells
BT-549 = test: Antitumor activity against human BT549 cells
TK-10 = test: Antitumor activity against human TK10 cells
SW-620 = test: Antitumor activity against human SW620 cells
NCI-H322M = test: Antitumor activity against human NCI-H322M cells
ACHN = test: Antitumor activity against human ACHN cells
SK-OV-3 = test: Antitumor activity against human SKOV3 cells
SNB-75 = test: Antitumor activity against human SNB75 cells
SK-MEL-5 = test: Antitumor activity against human SK-MEL-5 cells
NCI-H23 = test: Antitumor activity against human NCI-H23 cells
IGROV-1 = test: Antitumor activity against human IGROV1 cells
MDA-MB-435 = test: Antitumor activity against human MDA-MB-435 cells
M14 = test: Antitumor activity against human M14 cells
UACC-62 = test: Antitumor activity against human UACC62 cells
CCRF-CEM = test: Antitumor activity against human CCRF-CEM cells
UO-31 = test: Antitumor activity against human UO31 cells
A549 = test: Antitumor activity against human A549 cells
MCF7 = test: Antitumor activity against human MCF7 cells
HOP-62 = test: Antitumor activity against human HOP62 cells
U-251 = test: Antitumor activity against human U251 cells
KM12 = test: Antitumor activity against human KM12 cells
UACC-257 = test: Antitumor activity against human UACC257 cells
T47D = test: Antitumor activity against human T47D cells
COLO 205 = test: Antitumor activity against human COLO205 cells
SN12C = test: Antitumor activity against human SN12C cells
HCC 2998 = test: Antitumor activity against human HCC2998 cells
HOP-92 = test: Antitumor activity against human HOP92 cells
HT-29 = test: Antitumor activity against human HT-29 cells
MDA-N = test: Antitumor activity against human MDA-N cells
HCT-116 = test: Antitumor activity against human HCT116 cells
MDA-MB-231 = test: Antitumor activity against human MDA-MB-231 cells
PC-3 = test: Antitumor activity against human PC3 cells
DU-145 = test: Antitumor activity against human DU145 cells
HCT-15 = test: Antitumor activity against human HCT15 cells
SF-295 = test: Antitumor activity against human SF295 cells
NCI-H522 = test: Antitumor activity against human NCI-H522 cells
Malme-3M = test: Antitumor activity against human MALME-3M cells
SK-MEL-28 = test: Antitumor activity against human SK-MEL-28 cells
SK-MEL-2 = test: Antitumor activity against human SK-MEL-2 cells
[2] = Antitumor activity against human MCF7/ADR cells; settings: NCI/ADR-RES
OVCAR-3 = test: Antitumor activity against human OVCAR-3 cells
OVCAR-5 = test: Antitumor activity against human OVCAR5 cells
SR = test: Antitumor activity against human SR cells
[3] = Antitumor activity against human Hs 578T cells
MOLT-4 = test: Antitumor activity against human MOLT4 cells
EKVX = test: Antitumor activity against human EKVX cells
[4] = read-out: pLC50 (the source's name) (converted)

## C#C[C@@H](O)/C=C/CCCCCCCCC/C=C\CCCCCC
NCI-H460
  GI50: 42.7 nM
NCI-H460; [4]
  CC50: 151 nM
NCI-H460; read-out: pTGI (converted)
  TGI: 79.4 nM
RXF 393
  GI50: 33.1 nM
RXF 393; [4]
  CC50: 132 nM
RXF 393; read-out: pTGI (converted)
  TGI: 66.1 nM
NCI-H226
  GI50: 30.2 nM
NCI-H226; [4]
  CC50: 129 nM
NCI-H226; read-out: pTGI (converted)
  TGI: 61.7 nM
SNB-19
  GI50: 52.5 nM
SNB-19; [4]
  CC50: 151 nM
SNB-19; read-out: pTGI (converted)
  TGI: 89.1 nM
K562
  GI50: 30.9 nM
K562; [4]
  CC50: 155 nM
K562; read-out: pTGI (converted)
  TGI: 69.2 nM
CAKI-1
  GI50: 52.5 nM
CAKI-1; [4]
  CC50: 162 nM
CAKI-1; read-out: pTGI (converted)
  TGI: 91.2 nM
OVCAR-8
  GI50: 37.1 nM
OVCAR-8; [4]
  CC50: 132 nM
OVCAR-8; read-out: pTGI
  TGI: 70.8 nM
786-0
  GI50: 42.7 nM
786-0; [4]
  CC50: 138 nM
786-0; read-out: pTGI (converted)
  TGI: 77.6 nM
HL-60(TB)
  GI50: 10.2 nM
HL-60(TB); [4]
  CC50: 129 nM
HL-60(TB); read-out: pTGI (converted)
  TGI: 36.3 nM
SF-268
  GI50: 38.9 nM
SF-268; [4]
  CC50: 138 nM
SF-268; read-out: pTGI (converted)
  TGI: 74.1 nM
[1]
  GI50: 6.76 nM
[1]; [4]
  CC50: 129 nM
[1]; read-out: pTGI (converted)
  TGI: 18.6 nM
A498
  GI50: 58.9 nM
A498; [4]
  CC50: 155 nM
A498; read-out: pTGI (converted)
  TGI: 95.5 nM
OVCAR-4
  GI50: 18.6 nM
OVCAR-4; [4]
  CC50: 112 nM
OVCAR-4; read-out: pTGI (converted)
  TGI: 51.3 nM
SF-539
  GI50: 44.7 nM
SF-539; [4]
  CC50: 141 nM
SF-539; read-out: pTGI (converted)
  TGI: 79.4 nM
BT-549
  GI50: 38.9 nM
BT-549; [4]
  CC50: 135 nM
BT-549; read-out: pTGI (converted)
  TGI: 72.4 nM
TK-10
  GI50: 60.3 nM
TK-10; [4]
  CC50: 155 nM
TK-10; read-out: pTGI (converted)
  TGI: 97.7 nM
SW-620
  GI50: 9.33 nM
SW-620; [4]
  CC50: 112 nM
SW-620; read-out: pTGI (converted)
  TGI: 42.7 nM
NCI-H322M
  GI50: 53.7 nM
NCI-H322M; [4]
  CC50: 151 nM
NCI-H322M; read-out: pTGI (converted)
  TGI: 91.2 nM
ACHN
  GI50: 45.7 nM
ACHN; [4]
  CC50: 141 nM
ACHN; read-out: pTGI (converted)
  TGI: 79.4 nM
SK-OV-3
  GI50: 61.7 nM
SK-OV-3; [4]
  CC50: 158 nM
SK-OV-3; read-out: pTGI (converted)
  TGI: 100 nM
SNB-75
  GI50: 12.3 nM
SNB-75; [4]
  CC50: 107 nM
SNB-75; read-out: pTGI (converted)
  TGI: 43.6 nM
SK-MEL-5
  GI50: 32.4 nM
SK-MEL-5; [4]
  CC50: 129 nM
SK-MEL-5; read-out: pTGI (converted)
  TGI: 64.6 nM
NCI-H23
  GI50: 13.5 nM
NCI-H23; [4]
  CC50: 110 nM
NCI-H23; read-out: pTGI (converted)
  TGI: 45.7 nM
IGROV-1
  GI50: 0.562 nM
IGROV-1; [4]
  CC50: 2.19 nM
IGROV-1; read-out: pTGI (converted)
  TGI: 1.12 nM
MDA-MB-435
  GI50: 26.9 nM
MDA-MB-435; [4]
  CC50: 126 nM
MDA-MB-435; read-out: pTGI (converted)
  TGI: 57.5 nM
M14
  GI50: 8.32 nM
M14; [4]
  CC50: 100 nM
M14; read-out: pTGI (converted)
  TGI: 39.8 nM
UACC-62
  GI50: 38.9 nM
UACC-62; [4]
  CC50: 135 nM
UACC-62; read-out: pTGI (converted)
  TGI: 72.4 nM
CCRF-CEM
  GI50: 0.631 nM
CCRF-CEM; [4]
  CC50: 61.7 nM
CCRF-CEM; read-out: pTGI (converted)
  TGI: 1.55 nM
UO-31
  GI50: 52.5 nM
UO-31; [4]
  CC50: 151 nM
UO-31; read-out: pTGI (converted)
  TGI: 89.1 nM
A549
  GI50: 45.7 nM
A549; [4]
  CC50: 148 nM
A549; read-out: pTGI (converted)
  TGI: 83.2 nM
MCF7
  GI50: 13.8 nM
MCF7; [4]
  CC50: 123 nM
MCF7; read-out: pTGI (converted)
  TGI: 47.9 nM
HOP-62
  GI50: 52.5 nM
HOP-62; [4]
  CC50: 151 nM
HOP-62; read-out: pTGI (converted)
  TGI: 89.1 nM
U-251
  GI50: 40.7 nM
U-251; [4]
  CC50: 138 nM
U-251; read-out: pTGI (converted)
  TGI: 74.1 nM
KM12
  GI50: 37.1 nM
KM12; [4]
  CC50: 132 nM
KM12; read-out: pTGI
  TGI: 70.8 nM
UACC-257
  GI50: 32.4 nM
UACC-257; [4]
  CC50: 126 nM
UACC-257; read-out: pTGI (converted)
  TGI: 64.6 nM
T47D
  GI50: 6.31 nM
T47D; [4]
  CC50: 115 nM
T47D; read-out: pTGI (converted)
  TGI: 42.7 nM
COLO 205
  GI50: 43.6 nM
COLO 205; [4]
  CC50: 141 nM
COLO 205; read-out: pTGI (converted)
  TGI: 79.4 nM
SN12C
  GI50: 28.8 nM
SN12C; [4]
  CC50: 123 nM
SN12C; read-out: pTGI (converted)
  TGI: 58.9 nM
HCC 2998
  GI50: 43.6 nM
HCC 2998; [4]
  CC50: 141 nM
HCC 2998; read-out: pTGI (converted)
  TGI: 79.4 nM
HOP-92
  GI50: 46.8 nM
HOP-92; [4]
  CC50: 145 nM
HOP-92; read-out: pTGI (converted)
  TGI: 83.2 nM
HT-29
  GI50: 30.9 nM
HT-29; [4]
  CC50: 138 nM
HT-29; read-out: pTGI (converted)
  TGI: 66.1 nM
MDA-N
  GI50: 25.1 nM
MDA-N; [4]
  CC50: 115 nM
MDA-N; read-out: pTGI (converted)
  TGI: 53.7 nM
HCT-116
  GI50: 25.1 nM
HCT-116; [4]
  CC50: 117 nM
HCT-116; read-out: pTGI (converted)
  TGI: 55 nM
MDA-MB-231
  GI50: 47.9 nM
MDA-MB-231; [4]
  CC50: 145 nM
MDA-MB-231; read-out: pTGI (converted)
  TGI: 83.2 nM
PC-3
  GI50: 39.8 nM
PC-3; [4]
  CC50: 138 nM
PC-3; read-out: pTGI (converted)
  TGI: 74.1 nM
DU-145
  GI50: 47.9 nM
DU-145; [4]
  CC50: 145 nM
DU-145; read-out: pTGI (converted)
  TGI: 83.2 nM
HCT-15
  GI50: 36.3 nM
HCT-15; [4]
  CC50: 132 nM
HCT-15; read-out: pTGI (converted)
  TGI: 69.2 nM
SF-295
  GI50: 44.7 nM
SF-295; [4]
  CC50: 145 nM
SF-295; read-out: pTGI (converted)
  TGI: 79.4 nM
NCI-H522
  GI50: 0.115 nM
  LC50: 1.18 nM
NCI-H522; read-out: pTGI (converted)
  TGI: 0.436 nM
Malme-3M
  GI50: 6.31 nM
Malme-3M; [4]
  CC50: 72.4 nM
Malme-3M; read-out: pTGI (converted)
  TGI: 20.4 nM
SK-MEL-28
  GI50: 41.7 nM
SK-MEL-28; [4]
  CC50: 138 nM
SK-MEL-28; read-out: pTGI (converted)
  TGI: 75.9 nM
SK-MEL-2
  GI50: 8.13 nM
SK-MEL-2; [4]
  CC50: 83.2 nM
SK-MEL-2; read-out: pTGI (converted)
  TGI: 23.4 nM
[2]
  GI50: 38 nM
[2]; [4]
  CC50: 138 nM
[2]; read-out: pTGI (converted)
  TGI: 72.4 nM
OVCAR-3
  GI50: 49 nM
OVCAR-3; [4]
  CC50: 145 nM
OVCAR-3; read-out: pTGI (converted)
  TGI: 85.1 nM
OVCAR-5
  GI50: 46.8 nM
OVCAR-5; [4]
  CC50: 145 nM
OVCAR-5; read-out: pTGI (converted)
  TGI: 81.3 nM
SR
  GI50: 15.5 nM
SR; [4]
  CC50: 174 nM
SR; read-out: pTGI (converted)
  TGI: 55 nM
[3]
  GI50: 44.7 nM
[3]; [4]
  CC50: 170 nM
[3]; read-out: pTGI (converted)
  TGI: 87.1 nM
MOLT-4
  GI50: 6.46 nM
MOLT-4; [4]
  CC50: 126 nM
MOLT-4; read-out: pTGI (converted)
  TGI: 26.9 nM
EKVX
  GI50: 46.8 nM
EKVX; [4]
  CC50: 145 nM
EKVX; read-out: pTGI (converted)
  TGI: 81.3 nM
